Results taken from ChEMBL document CHEMBL1629634, “Postantibiotic effect of tigecycline against 14 gram-positive organisms” (Antimicrob Agents Chemother, 2009).
Values after ≈ are worked out from the molar mass of the structure shown.

Legend:
Staphylococcus aureus [1] = experiment: Antibacterial activity against vancomycin-sensitive methicillin-resistant Staphylococcus aureus assessed as post-antibiotic sub-MIC effect at 0.3 times MIC concentration pretreated with 6 times MIC concentration for 1 hr followed by 1:1000 dilution by viable plate count method; assay type: functional
Klebsiella pneumoniae [2] = experiment: Antibacterial activity against Klebsiella pneumoniae assessed as post antibiotic effect at 10 times MIC concentration incubated for 1 hr measured after 1:1000 dilution by viable plate count method; assay type: functional
Streptococcus pneumoniae [3] = experiment: Antibacterial activity against penicillin-intermediate Streptococcus pneumoniae assessed as post-antibiotic sub-MIC effect at 0.2 times MIC concentration pretreated with 10 times MIC concentration for 1 hr followed by 1:1000 dilution by viable plate count method; assay type: functional
Staphylococcus aureus [4] = experiment: Antibacterial activity against vancomycin-intermediate methicillin-resistant Staphylococcus aureus assessed as post-antibiotic sub-MIC effect at 0.4 times MIC concentration pretreated with 6 times MIC concentration for 1 hr followed by 1:1000 dilution by viable plate count method; assay type: functional
Streptococcus pneumoniae [5] = experiment: Antibacterial activity against penicillin-intermediate Streptococcus pneumoniae assessed as post-antibiotic sub-MIC effect at 0.4 times MIC concentration pretreated with 10 times MIC concentration for 1 hr followed by 1:1000 dilution by viable plate count method; assay type: functional
Klebsiella pneumoniae [6] = experiment: Antibacterial activity against Klebsiella pneumoniae assessed as sub-MIC effect at 0.2 times MIC concentration incubated for 1 hr by viable plate count method; assay type: functional
Enterococcus faecalis [7] = experiment: Antibacterial activity against vancomycin-sensitive Enterococcus faecalis by macrodilution method; assay type: functional
Klebsiella pneumoniae [8] = experiment: Antibacterial activity against Klebsiella pneumoniae assessed as post-antibiotic sub-MIC effect at 0.2 times MIC concentration pretreated with 10 times MIC concentration for 1 hr followed by 1:1000 dilution by viable plate count method; assay type: functional
Staphylococcus aureus [9] = experiment: Antibacterial activity against vancomycin-intermediate methicillin-resistant Staphylococcus aureus assessed as sub-MIC effect at 0.2 times MIC concentration incubated for 1 hr by viable plate count method; assay type: functional
Escherichia coli [10] = experiment: Antibacterial activity against Escherichia coli assessed as post-antibiotic sub-MIC effect at 0.4 times MIC concentration pretreated with 6 times MIC concentration for 1 hr followed by 1:1000 dilution by viable plate count method; assay type: functional
Acinetobacter baumannii [11] = experiment: Antibacterial activity against Acinetobacter baumannii assessed as post antibiotic effect at 10 times MIC concentration incubated for 1 hr measured after 1:1000 dilution by viable plate count method; assay type: functional
Streptococcus pneumoniae [12] = experiment: Antibacterial activity against penicillin-intermediate Streptococcus pneumoniae assessed as sub-MIC effect at 0.4 times MIC concentration incubated for 1 hr by viable plate count method; assay type: functional
Klebsiella pneumoniae [13] = experiment: Antibacterial activity against Klebsiella pneumoniae assessed as post-antibiotic sub-MIC effect at 0.4 times MIC concentration pretreated with 2 times MIC concentration for 1 hr followed by 1:1000 dilution by viable plate count method; assay type: functional
Streptococcus pneumoniae [14] = experiment: Antibacterial activity against Streptococcus pneumoniae infected in neutropenic mouse thighs assessed as post antibiotic effect; assay type: functional, Thigh muscle
Haemophilus influenzae [15] = experiment: Antibacterial activity against amoxicillin, clavulanate-resistant Haemophilus influenzae expressing beta-lactamase assessed as post-antibiotic sub-MIC effect at 0.2 times MIC concentration pretreated with 6 times MIC concentration for 1 hr followed by 1:1000 dilution by viable plate count method; assay type: functional
Klebsiella pneumoniae [16] = experiment: Antibacterial activity against Klebsiella pneumoniae assessed as post antibiotic effect; assay type: functional
Staphylococcus aureus [17] = experiment: Antibacterial activity against vancomycin-sensitive methicillin-resistant Staphylococcus aureus assessed as post-antibiotic sub-MIC effect at 0.4 times MIC concentration pretreated with 10 times MIC concentration for 1 hr followed by 1:1000 dilution by viable plate count method; assay type: functional
Enterococcus faecalis [18] = experiment: Antibacterial activity against vancomycin-resistant Enterococcus faecalis assessed as post-antibiotic sub-MIC effect at 0.3 times MIC concentration pretreated with 10 times MIC concentration for 1 hr followed by 1:1000 dilution by viable plate count method; assay type: functional
Haemophilus influenzae [19] = experiment: Antibacterial activity against amoxicillin, clavulanate-resistant Haemophilus influenzae expressing beta-lactamase by macrodilution method; assay type: functional
Streptococcus pneumoniae [20] = experiment: Antibacterial activity against penicillin-resistant Streptococcus pneumoniae assessed as sub-MIC effect at 0.4 times MIC concentration incubated for 1 hr by viable plate count method; assay type: functional
Staphylococcus aureus [21] = experiment: Antibacterial activity against vancomycin-intermediate methicillin-resistant Staphylococcus aureus assessed as post antibiotic effect at 6 times MIC concentration incubated for 1 hr measured after 1:1000 dilution by viable plate count method; assay type: functional
Streptococcus pneumoniae [22] = experiment: Antibacterial activity against penicillin-intermediate Streptococcus pneumoniae assessed as sub-MIC effect at 0.3 times MIC concentration incubated for 1 hr by viable plate count method; assay type: functional
Acinetobacter baumannii [23] = experiment: Antibacterial activity against multidrug-resistant Acinetobacter baumannii producing OXA-24 and OXA-51 beta-lactamases assessed as post antibiotic effect at 2 times MIC concentration incubated for 1 hr measured after 1:1000 dilution by viable plate count method; assay type: functional
Streptococcus pneumoniae [24] = experiment: Antibacterial activity against penicillin-resistant Streptococcus pneumoniae assessed as post-antibiotic sub-MIC effect at 0.3 times MIC concentration pretreated with 10 times MIC concentration for 1 hr followed by 1:1000 dilution by viable plate count method; assay type: functional
Klebsiella pneumoniae [25] = experiment: Antibacterial activity against Klebsiella pneumoniae by macrodilution method; assay type: functional
Staphylococcus aureus [26] = experiment: Antibacterial activity against vancomycin-sensitive methicillin-resistant Staphylococcus aureus assessed as post antibiotic effect at 10 times MIC concentration incubated for 1 hr measured after 1:1000 dilution by viable plate count method; assay type: functional
Staphylococcus aureus [27] = experiment: Antibacterial activity against vancomycin-intermediate methicillin-resistant Staphylococcus aureus assessed as post-antibiotic sub-MIC effect at 0.2 times MIC concentration pretreated with 10 times MIC concentration for 1 hr followed by 1:1000 dilution by viable plate count method; assay type: functional
Escherichia coli [28] = experiment: Antibacterial activity against Escherichia coli assessed as post-antibiotic sub-MIC effect at 0.3 times MIC concentration pretreated with 10 times MIC concentration for 1 hr followed by 1:1000 dilution by viable plate count method; assay type: functional
Haemophilus influenzae [29] = experiment: Antibacterial activity against amoxicillin, clavulanate-resistant Haemophilus influenzae expressing beta-lactamase assessed as post-antibiotic sub-MIC effect at 0.2 times MIC concentration pretreated with 10 times MIC concentration for 1 hr followed by 1:1000 dilution by viable plate count method; assay type: functional
Acinetobacter baumannii [30] = experiment: Antibacterial activity against Acinetobacter baumannii assessed as sub-MIC effect at 0.3 times MIC concentration incubated for 1 hr by viable plate count method; assay type: functional
Escherichia coli [31] = experiment: Antibacterial activity against Escherichia coli assessed as post antibiotic effect at 10 times MIC concentration incubated for 1 hr measured after 1:1000 dilution by viable plate count method; assay type: functional
Klebsiella pneumoniae [32] = experiment: Antibacterial activity against Klebsiella pneumoniae assessed as post-antibiotic sub-MIC effect at 0.2 times MIC concentration pretreated with 2 times MIC concentration for 1 hr followed by 1:1000 dilution by viable plate count method; assay type: functional
Streptococcus pneumoniae [33] = experiment: Antibacterial activity against penicillin-resistant Streptococcus pneumoniae assessed as post-antibiotic sub-MIC effect at 0.4 times MIC concentration pretreated with 10 times MIC concentration for 1 hr followed by 1:1000 dilution by viable plate count method; assay type: functional
Enterobacter cloacae = experiment: Antibacterial activity against Enterobacter cloacae assessed as post-antibiotic sub-MIC effect at 0.4 times MIC concentration pretreated with 2 times MIC concentration for 1 hr followed by 1:1000 dilution by viable plate count method; assay type: functional

Molecule `CN(C)c1cc(NC(=O)CNC(C)(C)C)c(O)c2c1C[C@H]1C[C@H]3[C@H](N(C)C)C(O)=C(C(N)=O)C(=O)[C@@]3(O)C(O)=C1C2=O` [TIGECYCLINE] has a PAE (Staphylococcus aureus [1]) of 4.9 h, a PAE (Klebsiella pneumoniae [2]) of 1.7 h and a PAE (Streptococcus pneumoniae [3]) of 6.1 h. The PAE (Staphylococcus aureus [4]) was 10 h, the PAE (Streptococcus pneumoniae [5]) was 8.8 h and the PAE (Klebsiella pneumoniae [6]) was 0.1 h. The MIC (Enterococcus faecalis [7]) was 0.06 µg/mL (≈ 0.102 µM), the PAE (Klebsiella pneumoniae [8]) was 1.9 h and the PAE (Staphylococcus aureus [9]) was 2 h. It also gave a PAE (Escherichia coli [10]) of 3.3 h, a PAE (Acinetobacter baumannii [11]) of 2.9 h and a PAE (Streptococcus pneumoniae [12]) of 7.7 h. For the same molecule, the PAE (Klebsiella pneumoniae [13]) was 2.6 h, the PAE (Streptococcus pneumoniae [14]) was 8.9 h and the PAE (Haemophilus influenzae [15]) was 3.9 h. It also gave a PAE (Klebsiella pneumoniae [16]) of 2 h, a PAE (Staphylococcus aureus [17]) of 6.7 h and a PAE (Enterococcus faecalis [18]) of 10.5 h. It also gave an MIC (Haemophilus influenzae [19]) of 0.12 µg/mL, a PAE (Streptococcus pneumoniae [20]) of 0.7 h and a PAE (Staphylococcus aureus [21]) of 4 h. It also gave a PAE (Streptococcus pneumoniae [22]) of 5.7 h, a PAE (Acinetobacter baumannii [23]) of 0.7 h and a PAE (Streptococcus pneumoniae [24]) of 10.2 h. For the same molecule, the MIC (Klebsiella pneumoniae [25]) was 0.25 µg/mL (≈ 0.427 µM), the PAE (Staphylococcus aureus [26]) was 3.2 h and the PAE (Staphylococcus aureus [27]) was 6.6 h. The PAE (Escherichia coli [28]) was 2.2 h, the PAE (Haemophilus influenzae [29]) was 3.9 h and the PAE (Acinetobacter baumannii [30]) was 1.5 h. For the same molecule, the PAE (Escherichia coli [31]) was 2 h, the PAE (Klebsiella pneumoniae [32]) was 1.8 h and the PAE (Streptococcus pneumoniae [33]) was 10.2 h. For the same molecule, the PAE (Enterobacter cloacae) was 6.9 h.
